{"source": "patent US20210147482A1", "about": "“PEPTIDE FOR INHIBITING BONE RESORPTION” (NIBEC CO., LTD., priority 2017, published 2021)", "key": {"[1]": {"test_system": "mouse-bone-marrow-derived macrophages", "assay": "Osteoclast differentiation by TRAP staining", "assay_type": "cell-based", "settings": "100 ng/ml RANKL + 0.2, 2, or 20 μg/ml HBD3-C15, 3 days", "procedure": "In order to evaluate the effect of HBD3-C15, a peptide fragment derived from human beta-defensin-3 (HBD3) on the differentiation of osteoclasts, which are bone destruction cells, mouse-bone-marrow-derived macrophages were used. The bone marrow-derived macrophages that were used were prepared by isolating bone marrow cells from the long bone of mice and culturing the same at 100% humidity and 37° C. in an alpha MEM containing 10% fetal bovine serum, 50 unit/ml of penicillin and 50 μg/ml of streptomycin along with 20 ng/ml of M-CSF for 5 days, while continuously feeding 5% carbon dioxide.\nMouse-bone-marrow-derived macrophages were seeded at 20,000 cells/well on a 96-well plate, treated with 100 ng/ml of receptor activator of nuclear factor-kappaB ligand (RANKL) alone, or a combination of 100 ng/ml of RANKL and 0.2, 2, or 20 μg/ml of HBD3-C15, and cultured for 3 days. In order to determine the degree of differentiation of osteoclasts, tartrate-resistant acid phosphatase (TRAP) staining was performed, and cells with three or more nuclei having osteoclast activity were counted and statistically analyzed."}, "c-Fos [2]": {"test_system": "c-Fos", "assay": "c-Fos RNA expression by RT-PCR", "assay_type": "cell-based, mouse", "settings": "20 ng/ml M-CSF, 100 ng/ml RANKL, 20 μg/ml HBD3-C15, 24 hours; FIG. 1D", "procedure": "(§1) In addition, expression of c-fos and NFATc1, which are well-known key transcription factors for osteoclast differentiation, was determined at protein and RNA levels.\n(§2) Mouse-bone-marrow-derived macrophages were treated with 20 ng/ml of M-CSF and 100 ng/ml of RANKL, or 20 ng/ml of M-CSF, 100 ng/ml of RANKL and 20 μg/ml of HBD3-C15 for 24 hours, RNA was extracted, and the quantified RNA and random primers were reacted at 70° C. for 5 minutes and reacted in the presence of a reverse transcriptase, reverse transcription buffer and dNTPs at 42° C. for 1 hour. The result was amplified by 35 cycles using the synthesized cDNA as a template and using c-Fos and NFATc1-specific oligos as primers in a polymerase chain reaction machine."}, "NFATc1 [3]": {"test_system": "NFATc1", "assay": "NFATc1 RNA expression by RT-PCR", "assay_type": "cell-based, mouse", "settings": "20 ng/ml M-CSF, 100 ng/ml RANKL, 20 μg/ml HBD3-C15, 24 hours; FIG. 1D", "procedure": "as §1, §2"}, "c-Fos [4]": {"test_system": "c-Fos", "assay": "c-Fos protein expression by immunoblotting", "assay_type": "cell-based, mouse", "settings": "treated with HBD3-C15 for 48 hours; FIG. 1D", "procedure": "(§3) In addition, in order to determine changes of the protein expression of c-Fos and NFATc1, the proteins were extracted from mouse-bone-marrow-derived macrophages, treated with HBD3-C15 for 48 hours, and 40 μg of the protein was transferred to the PVDF membrane through an SDS-PAGE gel. Then, immunoblotting was performed using c-Fos and NFATc1-specific antibodies."}, "NFATc1 [5]": {"test_system": "NFATc1", "assay": "NFATc1 protein expression by immunoblotting", "assay_type": "cell-based, mouse", "settings": "treated with HBD3-C15 for 48 hours; FIG. 1D", "procedure": "as §3"}, "[6]": {"test_system": "osteoclasts cultured from mouse-bone-marrow-derived macrophages on dentin discs", "assay": "Bone resorption activity of osteoclasts on dentin discs", "assay_type": "cell-based", "settings": "20 ng/ml M-CSF, 100 ng/ml RANKL, 20 μg/ml HBD3-C15, 6 days, FIG. 2", "procedure": "The osteoclasts were cultured in mouse-bone-marrow-derived macrophages on dentin discs based on the fact that osteoclasts perform all functions thereof in environments enabling bone absorption. Mouse-bone-marrow-derived macrophages were treated with 20 ng/ml of M-CSF and 100 ng/ml of RANKL, or with 20 ng/ml of M-CSF, 100 ng/ml of RANKL and 20 μg/ml of HBD3-C15, and then cultured for 6 days. The bone resorption area and bone resorption depth were imaged by confocal microscopy and total bone resorption depth and bone resorption area were measured by LSM Image Browser software."}, "[7]": {"test_system": "osteoclasts from mouse-derived bone marrow macrophages", "assay": "Podosome belt formation in osteoclasts (confocal microscopy)", "assay_type": "cell-based", "settings": "20 ng/ml M-CSF, 100 ng/ml RANKL, 20 μg/ml HBD3-C15, 5 days; FIG. 3", "procedure": "Thus, in order to determine whether or not the reduction of osteoclast differentiation by HBD3-C15 is affected by podosome belt formation in osteoclasts, mouse-derived bone marrow macrophages were differentiated on a cover glass. Mouse-bone-marrow-derived macrophages were treated with 20 ng/ml of M-CSF and 100 ng/ml of RANKL, or 20 ng/ml of M-CSF, 100 ng/ml of RANKL and 20 μg/ml of HBD3-C15, and cultured for 5 days. The cells were fixed with 4% paraformaldehyde, stained with Alexa-Fluor-488-conjugated-phalloidin, and washed and stained with Hoechst 33258. The degree of staining of cells was observed by confocal microscopy."}, "mature osteoclasts": {"test_system": "mature osteoclasts", "assay": "Destruction of podosome belt of differentiated mature osteoclasts", "assay_type": "cell-based, mouse", "settings": "20 μg/ml HBD3-C15 added on day 4 of differentiation, cultured 1 day; FIG. 4", "procedure": "Thus, in order to determine whether or not HBD3-C15 can inhibit the activity of differentiated mature osteoclasts, mouse-bone-marrow-derived macrophages were treated with 20 ng/ml of M-CSF and 100 ng/ml of RANKL on a cover glass for 4 days to induce differentiation of osteoclasts. The osteoclasts were treated with 20 μg/ml of HBD3-C15 on day 4 of differentiation and cultured for 1 day. The cells were fixed with 4% paraformaldehyde, stained with Alexa-Fluor-488-conjugated phalloidin, washed and nuclei-stained with Hoechst 33258. The degree of staining of cells was observed by confocal microscopy."}, "mouse skulls [8]": {"test_system": "mouse skulls", "assay": "Calvarial implantation model, bone resorption by RANKL", "assay_type": "in vivo", "settings": "20 μg RANKL and 200 μg HBD3-C15 in collagen sheet, day 7", "procedure": "In order to determine the inhibition of bone destruction by HBD3-C15 in vivo, a calvarial implantation model, a typical bone loss model, was used.\n20 μg of RANKL, a key cytokine that can destroy bones, was soaked in a collagen sheet and was transplanted alone into mouse skulls, or 20 μg of RANKL and 200 μg of HBD3-C15 were soaked in a collagen sheet and then transplanted into mouse skulls. The mice were sacrificed on day 7 of transplantation, and the degree of skull bone destruction was analyzed by scanning via micro-CT.\nAfter micro-CT analysis, TRAP staining was performed to determine the number of osteoclasts in the skull."}, "mouse skulls [9]": {"test_system": "mouse skulls", "assay": "Mouse skull resorption induced by A.a.LPS", "assay_type": "in vivo", "settings": "transplantation of HBD3-C15; FIG. 6", "procedure": "In addition, lipopolysaccharide of Aggregatibacter actinomycetemcomitans (A.a.LPS), a bacterium known to cause aggressive periodontitis accompanied with rapid alveolar bone loss, induced resorption of mouse skulls, and whether such resorption can be inhibited by HBD3-C15 was determined"}, "[10]": {"test_system": "osteoblast cell line MC3T3-E1 (Subclone 4)", "assay": "Osteoblast differentiation by alkaline phosphate staining", "assay_type": "cell-based", "settings": "differentiation medium (50 μg/ml ascorbic acid, 10 mM β-glycerophosphate) + 20 μg/ml HBD3-C15, 6 days; FIG. 7", "procedure": "In order to evaluate the effect of HBD3-C15 on differentiation of osteoblasts, which are bone formation cells, the osteoblast cell line MC3T3-E1 (Subclone 4) was used. The cells were prepared by culturing in alpha-MEM medium without ascorbic acid containing 10% fetal bovine serum, 50 unit/ml of penicillin, and 50 μg/ml of streptomycin at 37° C. and 100% humidity while continuously supplying 5% carbon dioxide.\nMC3T3-E1 cells were seeded at a density of 25,000 cells/well into a 48-well plate, then treated with a differentiation medium alone supplemented with 50 μg/ml of ascorbic acid and 10 mM of β-glycerophosphate, or in combination with 20 μg/ml of HBD3-C15, and cultured for 6 days. Alkaline phosphate staining was performed to determine the differentiation of osteoblasts and images were obtained through a camera mounted on a microscope."}}, "data": [{"substance": "G-K-C-S-T-R-G-R-K-C-C-R-R-K-K [HBD3-C15]", "values": [{"measurement": "number of TRAP positive cells increased due to RANKL", "setting": "[1]; FIG. 1A", "result": "decreased in a concentration-dependent manner"}, {"measurement": "number of cells with three or more nuclei having osteoclast activity", "setting": "[1]; FIG. 1B", "result": "statistically significantly decreased"}, {"measurement": "number of cells having ten or more nuclei", "setting": "[1]; FIG. 1C", "result": "significantly decreased"}, {"measurement": "expression of c-Fos (RNA) increased by RANKL", "setting": "c-Fos [2]", "result": "reduced"}, {"measurement": "expression of NFATc1 (RNA) increased by RANKL", "setting": "NFATc1 [3]", "result": "reduced"}, {"measurement": "c-Fos protein expression attributable to RANKL", "setting": "c-Fos [4]", "result": "inhibited an increase"}, {"measurement": "NFATc1 protein expression attributable to RANKL", "setting": "NFATc1 [5]", "result": "inhibited an increase"}, {"measurement": "increase in bone resorption area attributable to RANKL", "setting": "[6]", "result": "significantly reduced"}, {"measurement": "increase in bone resorption depth attributable to RANKL", "setting": "[6]", "result": "significantly reduced"}, {"measurement": "podosome belt formation by RANKL", "setting": "[7]", "result": "no clear podosome belt"}, {"measurement": "podosome belt of differentiated mature osteoclasts", "setting": "mature osteoclasts", "result": "incomplete podosome belt"}, {"measurement": "number of osteoclasts in the skull (TRAP staining)", "setting": "mouse skulls [8]; FIG. 5C", "result": "significantly reduced"}, {"measurement": "skull absorbed by RANKL (micro-CT)", "setting": "mouse skulls [8]; FIGS. 5A and 5B", "result": "significantly reduced"}, {"measurement": "number of osteoclasts (A.a.LPS model)", "setting": "mouse skulls [9]", "result": "decreased"}, {"measurement": "skull resorption by A.a.LPS", "setting": "mouse skulls [9]", "result": "significantly reduced"}, {"measurement": "degree of differentiation of osteoblasts", "setting": "[10]", "result": "no difference in the degree of differentiation"}]}]}
